# Patent US20090163517A1, “BENZOOXAZOLE, OXAZOLOPYRIDINE, BENZOTHIAZOLE AND THIAZOLOPYRIDINE DERIVATIVES” (priority 2005, published 2009)
# pKi: −log10 of the molar value.
# Biological target: T1, human subtype 5 somatostatin receptor (Homo sapiens, UniProt P35346)
# T1 construct: host or cells: CHO cell line, stably transfected; membranes prepared by sonication and centrifugation
# Experiment: SSTR5 radioligand binding on membranes of CHO cells expressing the human receptor (125I-labeled 11-Tyr somatostatin-14 tracer)
# Details: Ki calculated from IC50 by the Cheng-Prussoff equation, 0.05 nM 125I tracer, 1 hour at room temperature, read-out: SSTR 5 Ki
# Protocol: A CHO cell line stably transfected with a plasmid encoding the human subtype 5 somatostatin receptor (GenBank accession number D16827) was obtained from Euroscreen. Cells were cultured and used for binding and functional assays.
# Membranes of these cells were prepared by sonication in the presence of protease inhibitors and subsequent fractionating centrifugation. The protein concentration in the membrane preparation was determined using a commercial kit (BCA kit, Pierce, USA). Membranes were stored at −80° C. until use. After thawing, membranes were diluted in assay buffer (50 mM TRIS-HCl at pH 7.4, 5 mM MgCl2 and 0.20% BSA (bovine serum albumine)) and subjected to dounce homogenization.
# For binding studies, 0.1 mL membrane suspension, corresponding to app. 6×10^−15 mol receptor, was incubated for 1 hour at room temperature with 0.05 nM ^125I-labeled tracer (11-Tyr somatostatin-14, Perkin-Elmer) and either test compounds in varying concentrations or, for the determination of non-specific binding, 0.001 mM non-labeled somatostatin-14 (Sigma-Aldrich, Buchs, Switzerland). The incubation was stopped by filtration through GF/B glassfiber filters (Unifilter, Perkin-Elmer) and washing with ice-cold wash buffer (50 mM Tris-HCl at pH 7.4). The bound radioactivity was measured after application of a scintillation cocktail (Microscint 40, Perkin-Elmer) and expressed as disintegrations per minute (dpm).
# The receptor concentration was determined in a prior saturation experiment where a fixed, arbitrary amount of membranes was incubated with a concentration range of radio-labeled tracer. This allows estimating the total number of specific binding sites per amount of protein (i.e., Bmax), typically between 1 and 5 pmol/mg.
# The concentration of the test compound required to result in half maximal inhibition of binding of the radio-labeled tracer (IC50) was estimated from a concentration-versus-dpm graph. The binding affinity (Ki) was calculated from the IC50 by applying the Cheng-Prussoff equation for single binding sites.
# T1 sequence (P35346 whole entry): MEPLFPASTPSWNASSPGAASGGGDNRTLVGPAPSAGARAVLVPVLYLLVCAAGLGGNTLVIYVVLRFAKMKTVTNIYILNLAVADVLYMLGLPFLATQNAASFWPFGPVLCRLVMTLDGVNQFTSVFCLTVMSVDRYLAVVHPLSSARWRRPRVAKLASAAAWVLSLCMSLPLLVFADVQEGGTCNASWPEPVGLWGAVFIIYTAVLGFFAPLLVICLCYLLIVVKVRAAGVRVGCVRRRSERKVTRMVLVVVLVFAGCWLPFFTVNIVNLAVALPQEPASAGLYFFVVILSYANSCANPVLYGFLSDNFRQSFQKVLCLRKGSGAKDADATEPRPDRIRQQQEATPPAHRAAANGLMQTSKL
row,pKi,SMILES
1,8.22,"CCOc1cc(CN2CCC(Nc3nc4c(N)cccc4o3)CC2)cc(OCC)c1-n1cccc1 [Example 23, N^2-[1-(3,5-Diethoxy-4-pyrrol-1-yl-benzyl)-piperidin-4-yl]-benzooxazole-2,4-diamine]"
2,7.36,"CCOc1cc(CN2CCC(Nc3nc4ccc(C(=O)O)cc4o3)CC2)cc(OCC)c1N [Example 71, 2-[1-(4-Amino-3,5-diethoxy-benzyl)-piperidin-4-ylamino]-benzooxazole-6-carboxylic Acid]"
3,6.65,"CCOc1cc(CN2CCC(Nc3nc4c([N+](=O)[O-])cccc4o3)CC2)ccc1F [Example 73, [1-(3-Ethoxy-4-fluoro-benzyl)-piperidin-4-yl]-(4-nitro-benzooxazol-2-yl)-amine]"
